Source: patent US20230210888A1, “PHOTOTHERANOSTIC NANOAGENTS WITH EXCELLENT ATHEROSCLEROTIC PLAQUE-TARGETING AND PLAQUE-PENETRATING PROPERTIES, AND USE THEREOF” (Korea University Research and Business Foundation, priority 2021, published 2023)

Legend:
[1] = Singlet oxygen generation (SOSG fluorescence) under 670 nm laser; format: physicochemical; conditions: PBS with 1% Tween 20, 5 μM based on Ce6, 670 nm 50 mW/cm2, 0-120 s
Protocol: All three solutions contained 1 μM SOSG. The fluorescence intensity of SOSG (Ex(excitation)/Em(emission): 504 nm/525 nm) was measured by irradiating a laser (670 nm, 50 mW/cm^2) every 30 seconds from 0 to 120 seconds.

[2] = Skin phototoxicity after intravenous injection and 670 nm laser; format: in vivo, Balb/c mice; conditions: 2 mg/kg (equiv. of Ce6) iv, 670 nm 50 mW/cm2 5 min 1 h after injection; 2nd and 3rd days
Protocol: One hour after injection, a near-infrared (670 nm) laser (50 mW/cm^2) was irradiated for 5 minutes.

(17S,18S)-18-(2-carboxyethyl)-20-(carboxymethyl)-12-ethenyl-7-ethyl-3,8,13,17-tetramethyl-17,18,22,23-tetrahydroporphyrin-2-carboxylic acid [Ce6]
SOSG fluorescence intensity (singlet oxygen generation) [1]: tendency to increase similarly to each other | skin phototoxicity (erythema) [2]: erythema occurred
